Measurements published in patent US10160747B2, “Compounds and methods for kinase modulation, and indications therefor” (Plexxikon Inc., priority 2016, dated 2018).

Tests used:
[1] = target: T1, BA/F3-FLT3-ITD + D835Y (Homo sapiens, UniProt P36888, D835Y, cells depend on it, form not given); test: Engineered BA/F3 cell growth assay, FLT3 ITD/D835Y; assay type: cell-based, murine; conditions: 3 d growth
T1 sequence (P36888 with tags, fused parts or gaps INS600HVDFREYEYD/D835Y): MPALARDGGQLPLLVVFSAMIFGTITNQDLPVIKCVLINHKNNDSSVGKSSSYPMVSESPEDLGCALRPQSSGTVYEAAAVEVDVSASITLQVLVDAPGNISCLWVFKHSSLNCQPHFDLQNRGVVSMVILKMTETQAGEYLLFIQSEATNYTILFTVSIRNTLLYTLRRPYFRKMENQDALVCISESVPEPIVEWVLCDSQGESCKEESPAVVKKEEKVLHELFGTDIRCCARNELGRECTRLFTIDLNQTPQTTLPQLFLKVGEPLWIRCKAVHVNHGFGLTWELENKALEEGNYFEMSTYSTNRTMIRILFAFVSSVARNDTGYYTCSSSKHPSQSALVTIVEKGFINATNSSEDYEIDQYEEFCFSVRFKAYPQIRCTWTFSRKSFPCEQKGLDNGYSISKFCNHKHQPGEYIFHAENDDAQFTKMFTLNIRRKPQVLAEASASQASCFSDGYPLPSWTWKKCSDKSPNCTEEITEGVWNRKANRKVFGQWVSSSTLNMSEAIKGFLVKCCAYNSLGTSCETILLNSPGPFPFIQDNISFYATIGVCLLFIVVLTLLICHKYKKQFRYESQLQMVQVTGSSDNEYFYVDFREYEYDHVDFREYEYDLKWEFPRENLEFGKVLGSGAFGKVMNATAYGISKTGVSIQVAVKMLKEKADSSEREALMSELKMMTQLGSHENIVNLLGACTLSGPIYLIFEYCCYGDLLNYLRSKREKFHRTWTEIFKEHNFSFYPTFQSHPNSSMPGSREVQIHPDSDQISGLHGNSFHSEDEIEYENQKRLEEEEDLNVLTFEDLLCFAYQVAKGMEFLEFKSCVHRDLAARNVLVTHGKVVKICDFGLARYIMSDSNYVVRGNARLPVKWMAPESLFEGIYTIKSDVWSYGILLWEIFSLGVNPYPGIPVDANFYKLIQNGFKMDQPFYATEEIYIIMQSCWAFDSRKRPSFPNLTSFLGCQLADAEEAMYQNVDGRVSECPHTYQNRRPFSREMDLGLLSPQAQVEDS
Procedure, shortened: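 Murine Ba/F3 cells transfected with full-length FLT3 ITD/D835Y, grown without IL-3 so growth depends on FLT3. Seeded at 1×10^4 cells/well, 8-point 1:3 series to 1 μM top (0.2% DMSO), 3 days at 37 °C. CellTiter-Glo luminescence (ATP) versus concentration gave IC50.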

[2] = test system: MOLM-14 F691L (endogenous FLT3 ITD and transfected FLT3 F691L); test: MOLM-14 F691L cell proliferation assay (CellTiter-Glo); assay type: cell-based; conditions: Homo sapiens, MOLM-14, 72 h; 3 d growth, GMean
Procedure, shortened: (§1)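 MOLM-14 derivatives carrying D835Y or F691L, selected under escalating AC220, were seeded at 1×10^4 cells/well and exposed to an 8-point 1:3 compound series (1 to 0.00046 μM, 0.2% DMSO final) for three days at 37° C., 5% CO2. CellTiter-Glo luminescence (ATP content) versus concentration gave IC50.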

[3] = target: T2, c-KIT (Homo sapiens, UniProt P10721); test: c-KIT recombinant enzyme kinase assay (AlphaScreen); assay type: biochemical; conditions: 100 ATP, 8 pt
T2 construct: purchased Millipore 14-559K
T2 sequence (P10721 26-976): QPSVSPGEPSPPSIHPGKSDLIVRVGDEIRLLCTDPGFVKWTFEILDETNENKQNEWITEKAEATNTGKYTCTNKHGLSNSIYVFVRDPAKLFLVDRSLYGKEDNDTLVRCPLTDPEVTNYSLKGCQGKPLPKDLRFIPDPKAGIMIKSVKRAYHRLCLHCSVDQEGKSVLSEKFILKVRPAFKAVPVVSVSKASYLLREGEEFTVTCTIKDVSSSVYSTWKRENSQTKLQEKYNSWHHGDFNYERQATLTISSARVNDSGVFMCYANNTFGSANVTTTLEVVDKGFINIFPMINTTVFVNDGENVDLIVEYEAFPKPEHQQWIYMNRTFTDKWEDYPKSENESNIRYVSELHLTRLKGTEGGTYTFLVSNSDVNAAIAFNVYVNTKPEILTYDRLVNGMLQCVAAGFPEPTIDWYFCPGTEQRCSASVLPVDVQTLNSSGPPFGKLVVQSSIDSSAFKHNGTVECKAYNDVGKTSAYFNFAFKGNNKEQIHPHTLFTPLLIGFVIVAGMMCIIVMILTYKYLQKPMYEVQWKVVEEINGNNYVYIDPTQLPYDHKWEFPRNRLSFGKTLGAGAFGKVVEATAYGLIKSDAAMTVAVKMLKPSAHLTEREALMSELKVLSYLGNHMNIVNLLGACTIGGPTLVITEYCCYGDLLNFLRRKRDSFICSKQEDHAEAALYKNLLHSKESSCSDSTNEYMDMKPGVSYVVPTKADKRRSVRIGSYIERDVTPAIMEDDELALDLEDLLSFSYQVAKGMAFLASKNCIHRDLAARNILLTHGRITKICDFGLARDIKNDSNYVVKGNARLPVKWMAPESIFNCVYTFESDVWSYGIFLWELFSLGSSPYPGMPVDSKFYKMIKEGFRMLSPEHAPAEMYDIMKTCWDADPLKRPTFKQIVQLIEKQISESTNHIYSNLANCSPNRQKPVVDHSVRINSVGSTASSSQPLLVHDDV
Protocol: (§2) In order to determine the effect of compounds on FLT3 catalytic activity, kinase assays using recombinant enzymes and AlphaScreen® technology have been established. The catalytic activity of c-kit activity was also measured to determine selectivity of the compounds. When the kinases are catalytically active, they phosphorylate a biotinylated peptide substrate on tyrosine residues. Using AlphaScreen® technology, the ability of the compounds to affect the catalytic activity of the kinases can be measured quantitatively. The peptide substrate is immobilized by the AlphaScreen® Streptavidin Donor beads and, upon phosphorylation by a tyrosine kinase, can bind to AlphaScreen® Anti-Phosphotyrosine (PY20) Acceptor beads. Upon excitation of these beads with laser light at 680 nm, singlet oxygen is produced. This singlet oxygen is rapidly quenched, unless the AlphaScreen® Anti-Phosphotyrosine (PY20) Acceptor beads are in close proximity, in which case a proximity signal can be measured at 580 nm. In the presence of catalytic activity, there is a very strong proximity signal. Selective kinase inhibitors affect a decrease in this proximity signal through a decrease in tyrosine phosphorylation of the peptide substrate.
(§3) The assay was performed as summarized below.
(§4) Poly (Glu4-Tyr) Peptide, biotin conjugate [Biotin-GG(EEEEY)10EE] (SEQ ID NO: 4)
(§5) Final concentration=30 nM
(§6) Adenosine Triphosphate (ATP)
(§7) Final concentration for IC50 determination=10 μM (FLT3-D835Y or FLT3-ITD) or 100 μM (c-KIT)
(§8) AlphaScreen® Phosphotyrosine (PY20) Assay Kit
(§9) Final concentration=10 μg/mL
(§10) Dilute compounds in DMSO to 20× final concentration.
(§11) Add 1 μL of compound to each well of 384 well reaction plate (Perkin Elmer #6005359).
(§12) Mix enzyme and Poly (Glu4-Tyr) Peptide substrate at 1.33× final concentration in assay buffer.
(§13) Mix ATP at 5× final concentration in assay buffer.
(§14) Add 15 μL enzyme/substrate mixture to the reaction plate.
(§15) Add 4 μL of ATP to the reaction plate.
(§16) Mix Streptavidin Donor beads at 6× final concentration in Stop/Detection buffer.
(§17) Add 5 μL Streptavidin Donor beads to the reaction plate. Centrifuge 1 minute, shake to mix, and incubate at room temperature for 20 minutes.
(§18) Mix Anti-Phosphotyrosine (PY20) Acceptor beads at 6× final concentration in Stop/Detection buffer.
(§19) Add 5 μL Anti-Phosphotyrosine (PY20) beads to the reaction plate.
(§20) Centrifuge 1 minute, shake to mix, and incubate at room temperature for 60 minutes.
(§21) Read plate on Wallac EnVision™ 2103 Multilabel Reader.

[4] = test system: MOLM-14 D835Y (endogenous FLT3 ITD and transfected FLT3 D835Y); test: MOLM-14 D835Y cell proliferation assay (CellTiter-Glo); assay type: cell-based; conditions: Homo sapiens, MOLM-14, 72 h; 3 d growth, GMean
Procedure, shortened: as §1

[5] = target: T3, FLT3-ITD (Homo sapiens, UniProt P36888); test: FLT3-ITD recombinant enzyme kinase assay (AlphaScreen); assay type: biochemical; conditions: 8 pt; read-out: FLT3_ITD 8 pt: IC50
T3 sequence (P36888 1-993): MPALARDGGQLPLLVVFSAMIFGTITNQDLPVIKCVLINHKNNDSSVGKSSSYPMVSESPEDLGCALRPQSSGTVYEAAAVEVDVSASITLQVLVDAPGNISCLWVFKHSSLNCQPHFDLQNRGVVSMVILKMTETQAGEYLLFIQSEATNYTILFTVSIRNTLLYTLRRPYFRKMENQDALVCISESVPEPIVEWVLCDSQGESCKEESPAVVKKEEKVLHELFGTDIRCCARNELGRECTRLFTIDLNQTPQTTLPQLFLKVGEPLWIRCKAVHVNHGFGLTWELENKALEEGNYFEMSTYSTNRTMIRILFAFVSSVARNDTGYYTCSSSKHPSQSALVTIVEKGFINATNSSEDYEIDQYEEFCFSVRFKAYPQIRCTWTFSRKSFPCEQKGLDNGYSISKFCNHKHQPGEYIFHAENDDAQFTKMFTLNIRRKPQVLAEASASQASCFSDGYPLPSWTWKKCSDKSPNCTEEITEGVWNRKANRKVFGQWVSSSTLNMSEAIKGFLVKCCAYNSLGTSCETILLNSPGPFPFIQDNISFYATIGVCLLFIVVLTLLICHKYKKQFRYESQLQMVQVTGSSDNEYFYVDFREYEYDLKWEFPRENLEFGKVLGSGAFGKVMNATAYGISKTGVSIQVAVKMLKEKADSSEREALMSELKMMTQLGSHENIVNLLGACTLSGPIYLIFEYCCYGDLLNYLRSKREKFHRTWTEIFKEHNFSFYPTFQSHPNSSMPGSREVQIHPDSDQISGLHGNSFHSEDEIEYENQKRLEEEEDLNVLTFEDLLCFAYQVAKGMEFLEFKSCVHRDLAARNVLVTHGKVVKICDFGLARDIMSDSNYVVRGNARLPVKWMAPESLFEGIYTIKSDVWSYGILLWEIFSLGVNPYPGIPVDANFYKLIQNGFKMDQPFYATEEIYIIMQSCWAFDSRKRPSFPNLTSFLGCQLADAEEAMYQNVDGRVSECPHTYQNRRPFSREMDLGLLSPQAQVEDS
Protocol: as §2, §3, §4, §5, §6, §7, §8, §9, §10, §11, §12, §13, §14, §15, §16, §17, §18, §19, §20, §21

[6] = target: T4, FLT3-D835Y (Homo sapiens, UniProt P36888, D835Y); test: FLT3-D835Y recombinant enzyme kinase assay (AlphaScreen); assay type: biochemical; conditions: 8 pt, GMean
T4 construct: purchased Invitrogen PV3967
T4 sequence (P36888 27-993 D835Y): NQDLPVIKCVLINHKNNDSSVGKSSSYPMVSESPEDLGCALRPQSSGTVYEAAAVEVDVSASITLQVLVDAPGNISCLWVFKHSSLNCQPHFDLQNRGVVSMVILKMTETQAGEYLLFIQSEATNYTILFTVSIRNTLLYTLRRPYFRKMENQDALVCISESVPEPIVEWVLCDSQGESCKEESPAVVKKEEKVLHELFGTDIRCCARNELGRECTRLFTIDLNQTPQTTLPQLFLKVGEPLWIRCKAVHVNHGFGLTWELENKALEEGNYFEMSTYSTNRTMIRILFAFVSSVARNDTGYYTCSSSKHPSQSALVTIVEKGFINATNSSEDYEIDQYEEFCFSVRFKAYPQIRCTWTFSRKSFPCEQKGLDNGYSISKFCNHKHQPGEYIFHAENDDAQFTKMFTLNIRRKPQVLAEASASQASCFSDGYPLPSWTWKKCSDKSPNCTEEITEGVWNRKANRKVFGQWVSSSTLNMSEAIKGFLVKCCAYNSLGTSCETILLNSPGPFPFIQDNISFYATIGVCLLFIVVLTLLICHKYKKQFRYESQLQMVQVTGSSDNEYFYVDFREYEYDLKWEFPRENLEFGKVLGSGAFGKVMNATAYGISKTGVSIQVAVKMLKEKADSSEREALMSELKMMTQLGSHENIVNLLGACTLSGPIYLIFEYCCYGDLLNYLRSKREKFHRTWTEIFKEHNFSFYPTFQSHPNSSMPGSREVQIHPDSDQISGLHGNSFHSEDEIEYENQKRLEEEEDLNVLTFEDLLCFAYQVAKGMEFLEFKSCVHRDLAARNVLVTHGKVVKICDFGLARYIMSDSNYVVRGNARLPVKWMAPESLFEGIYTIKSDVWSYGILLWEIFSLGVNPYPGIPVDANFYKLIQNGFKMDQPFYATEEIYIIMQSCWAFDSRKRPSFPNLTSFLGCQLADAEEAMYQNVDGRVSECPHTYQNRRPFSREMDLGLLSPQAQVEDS
Protocol: as §2, §3, §4, §5, §6, §7, §8, §9, §10, §11, §12, §13, §14, §15, §16, §17, §18, §19, §20, §21

GI50 [1] | IC50 [2] | IC50 [3] | IC50 [4] | IC50 [5] | IC50 [6] | SMILES
 |  | 0.0001 to 10 µM |  | 0.0001 to 10 µM |  | Cn1cc(Nc2ncc(-c3ccc(CC(=O)Nc4cc(F)c(F)cn4)cc3)cn2)cn1 [Compound P-0163, N-(4,5-difluoro-2-pyridyl)-2-[4-[2-[(1-methylpyrazol-4-yl)amino]pyrimidin-5-yl]phenyl]acetamide]
0.0001 to 10 µM | 0.0001 to 10 µM |  | 0.0001 to 10 µM |  |  | CCc1cncc(NC(=O)Cc2ccc(-c3cnc(Nc4cnn(C(F)F)c4)nc3)cc2)c1 [Compound P-0223, 2-[4-[2-[[1-(difluoromethyl)pyrazol-4-yl]amino]pyrimidin-5-yl]phenyl]-N-(5-ethyl-3-pyridyl)acetamide]
0.0001 to 10 µM | 0.0001 to 10 µM |  | 0.0001 to 10 µM |  |  | O=C(Cc1ccc(-c2cnc(Nc3cnn(C(F)F)c3)nc2)cc1)Nc1cncc(C2CC2)c1 [Compound P-0224, N-(5-cyclopropyl-3-pyridyl)-2-[4-[2-[[1-(difluoromethyl)pyrazol-4-yl]amino]pyrimidin-5-yl]phenyl]acetamide]
0.0001 to 10 µM | 0.0001 to 10 µM |  | 0.0001 to 10 µM |  |  | COCCn1cc(Nc2ncc(-c3ccc(CC(=O)Nc4cnc(C)c(C(F)(F)F)c4)c(F)c3)cn2)cn1 [Compound P-0264, 2-[2-fluoro-4-[2-[[1-(2-methoxyethyl)pyrazol-4-yl]amino]pyrimidin-5-yl]phenyl]-N-[6-methyl-5-(trifluoromethyl)-3-pyridyl]acetamide]

The next lines start with the compound.

SMILES | GI50 [1] | IC50 [2] | IC50 [3] | IC50 [4] | IC50 [5] | IC50 [6]
CCC(=O)c1c[nH]c2ncc(-c3ccc(CC(=O)Nc4cnc(OC)c(C(F)(F)F)c4)c(F)c3)cc12 [Compound P-0049, 2-[2-fluoro-4-(3-propanoyl-1H-pyrrolo[2,3-b]pyridin-5-yl)phenyl]-N-[6-methoxy-5-(trifluoromethyl)-3-pyridyl]acetamide] | 0.0001 to 10 µM | 0.0001 to 10 µM | 0.0001 to 10 µM | 0.0001 to 10 µM |  | 
Cc1ncc(NC(=O)Cc2ccc(-c3cnc(Nc4cn[nH]c4)nc3)c(F)c2)cc1C(F)(F)F [Compound P-0225, 2-[3-fluoro-4-[2-(1H-pyrazol-4-ylamino)pyrimidin-5-yl]phenyl]-N-[6-methyl-5-(trifluoromethyl)-3-pyridyl]acetamide] | 0.0001 to 10 µM | 0.0001 to 10 µM |  | 0.0001 to 10 µM |  | 
COc1ncc(NC(=O)Cc2cc(F)c(-c3cnc(Nc4cn[nH]c4)nc3)cc2F)cc1C(F)(F)F [Compound P-0226, 2-[2,5-difluoro-4-[2-(1H-pyrazol-4-ylamino)pyrimidin-5-yl]phenyl]-N-[6-methoxy-5-(trifluoromethyl)-3-pyridyl]acetamide] | 0.0001 to 10 µM | 0.0001 to 10 µM |  | 0.0001 to 10 µM |  | 
COc1ncc(NC(=O)Cc2ccc(-c3cnc4[nH]nc(F)c4c3)cc2)cc1C(F)(F)F [Compound P-0245, 2-[4-(3-fluoro-1H-pyrazolo[3,4-b]pyridin-5-yl)phenyl]-N-[6-methoxy-5-(trifluoromethyl)-3-pyridyl]acetamide] |  |  | 0.0001 to 10 µM |  |  | 0.0001 to 10 µM
